Measurements: patent US7618975B2, “4-arylamino-quinazolines and analogs as activators of caspases and inducers of apoptosis and the use thereof” (Myriad Pharmaceuticals, Inc., priority 2003, dated 2009)

System: T-47D cells
Assay: Caspase cascade activation (N-(Ac-DEVD)-N′-ethoxycarbonyl-R110 fluorogenic substrate) in T-47D cells; on Caspase activity Ratio T-47D (24 hr): test concentration or dose not given here; on Caspase activity Ratio T-47D (48 hr): test concentration or dose not given here
Type: cell-based, Human
Conditions: T-47D, 24 hr; ratio of net RFU to control

In order of rising “Caspase activity Ratio T-47D (24 hr)” value:
1. COc1ccc(N(C)c2nc(NCCN3CCOCC3)nc3cc(OC)c(OC)cc23)cc1 [Example 23, 6,7-Dimethoxy-N^4-(4-methoxy-phenyl)-N^4-methyl-N^2-(2-morpholin-4-yl-ethyl)-quinazoline-2,4-diamine]  1.0
2. Cc1nc(N(C)c2ccc(C(=O)O)cc2)c2ccccc2n1 [Example 116, 4-(N-Methyl-N-(2-methylquinazolin-4-yl)amino)benzoic Acid]  1.0
3. Cc1nc(N(C)c2ccncc2)c2ccccc2n1 [Example 136, (2-Methyl-quinazolin-4-yl)-(pyridin-4-yl)-methyl-amine]  1.2
4. Cc1nc(N(C)c2cnccn2)c2ccccc2n1 [Example 134, (2-Methyl-quinazolin-4-yl)-(pyrazin-2-yl)-methyl-amine]  1.2
5. CN(c1nc(Cl)nc2ccccc12)[C@H]1CC[C@@H](C)CC1 [Example 132, (2-Chloro-quinazolin-4-yl)-(cis-4-methylcyclohexyl)-methyl-amine]  1.2
6. C[C@H]1CC[C@@H](Nc2nc(Cl)nc3ccccc23)CC1 [Example 130, (2-Chloro-quinazolin-4-yl)-(cis-4-methylcyclohexyl)-amine]  1.2
7. COc1cnc(Nc2nc(C)nc3ccccc23)nc1 [Example 141, (5-Methoxy-pyrimidin-2-yl)-(2-methyl-quinazolin-4-yl)-amine]  1.2
8. COc1ccc(Nc2nc(C)nc3ccccc23)nc1 [Example 137, (5-Methoxy-pyridin-2-yl)-(2-methyl-quinazolin-4-yl)-amine]  1.2
9. CCc1ccc(Nc2nc(C)nc3ccccc23)cc1 [Example 81, (4-Ethyl-phenyl)-(2-methyl-quinazolin-4-yl)-amine]  1.9
10. COc1ccc(N(C)c2nc(C)nc3cc(N)ccc23)cc1 [Example 113, (7-Amino-2-methyl-quinazolin-4-yl)-(4-methoxy-phenyl)-methyl-amine]  3.7
11. COc1ccc(N(C)c2nc(C)nc3ccccc23)nc1 [Example 138, (5-Methoxy-pyridin-2-yl)-(2-methyl-quinazolin-4-yl)-methyl-amine]  5.0
12. COc1ccc(N(C)c2nc(CN(C)C)nc3ccccc23)cc1 [Example 77, (2-Dimethylaminomethyl-quinazolin-4-yl)-(4-methoxy-phenyl)-methyl-amine]  5.7
13. Cc1nc(N(C)c2ccc(OC(C)C)cc2)c2ccccc2n1 [Example 86, (4-Isopropoxy-phenyl)-(2-methyl-quinazolin-4-yl)-methyl-amine]  6.2
14. Cc1nc(N(C)c2ccc(OC(F)F)cc2)c2ccccc2n1 [Example 84, (4-Difluoromethoxy-phenyl)-(2-methyl-quinazolin-4-yl)-methyl-amine]  6.7
15. COc1ccc(N(C)c2nc(C)nc3ccccc23)c(F)c1 [Example 99, (2-Fluoro-4-methoxy-phenyl)-(2-methyl-quinazolin-4-yl)-methyl-amine]  6.9
16. COc1ccc(N(C)c2nc(C)nc3nccnc23)cc1 [Example 140, (4-Methoxy-phenyl)-(2-methyl-pteridin-4-yl)-methyl-amine]  7.0
17. COc1ccc(N(C)c2ccnc3ccccc23)cc1 [Example 66, (4-Methoxy-phenyl)-methyl-(quinolin-4-yl)-amine]  7.2
18. COc1cc(OC)c(N(C)c2nc(C)nc3ccccc23)c(OC)c1 [Example 88, (2-Methyl-quinazolin-4-yl)-(2,4,6-trimethoxy-phenyl)-methyl-amine]  7.6
19. CC(C)=CCC/C(C)=C/CNc1nc(N(C)c2ccc(C)cc2)c2ccccc2n1 [Example 16, N^2-(3,7-Dimethyl-octa-2,6-dienyl)-N^4-(4-methyl-phenyl)-N^4-methyl-quinazoline-2,4-diamine]  7.6
20. COc1ccc(N(C)c2nc(C)nc3ccccc23)nn1 [Example 125, (6-Methoxy-pyridazin-3-yl)-(2-methyl-quinazolin-4-yl)-methyl-amine]  8.3
21. Cc1nc(N(C)c2ccc(N=[N+]=[N-])cc2)c2ccccc2n1 [Example 102, (4-Azido-phenyl)-(2-methyl-quinazolin-4-yl)-methyl-amine]  8.8
22. Cc1nc(N(C)c2ccc([N+](=O)[O-])cc2)c2ccccc2n1 [Example 100, (2-Methyl-quinazolin-4-yl)-(4-nitro-phenyl)-methyl-amine]  8.9
23. Cc1nc(N(C)c2ccc(N)cc2)c2ccccc2n1 [Example 101, (4-Amino-phenyl)-(2-methyl-quinazolin-4-yl)-methyl-amine]  9.5
24. COc1ccc(N(C)c2nc(C)nc3ncccc23)cc1 [Example 92, (4-Methoxy-phenyl)-(2-methyl-pyrido[2,3-d]pyrimidin-4-yl)-methyl-amine]  10.1
25. CN(c1ccc(OC(F)(F)F)cc1)c1nc(Cl)nc2ccccc12 [Example 5, (2-Chloro-quinazolin-4-yl)-(4-trifluoromethoxy-phenyl)-methyl-amine]  10.3

Same assay, conditions: T-47D, 48 hr; benzohydrazide analogs table

In order of rising “Ratio T-47D (48 hr)” value:
1. CSc1nc(N(C)NC(=O)c2cccs2)c2ccccc2n1 [N′-methyl-N′-(2-(methylthio)quinazolin-4-yl)thiophene-2-carbohydrazide]  10.1
2. CSc1nc(N(C)NC(=O)c2ccccc2)c2ccccc2n1 [N′-methyl-N′-(2-(methylthio)quinazolin-4-yl)benzohydrazide]  14.7

Same assay, conditions: T-47D, 48 hr; ratio of net RFU to control

In order of falling “Caspase activity Ratio T-47D (48 hr)” value:
1. COc1ccc(N(C)c2nc(Cl)nc3cc(Cl)ccc23)cc1 [Example 62, (2,7-Dichloro-quinazolin-4-yl)-(4-methoxy-phenyl)-methyl-amine]  12.7
2. COc1ccc(N(C)c2ccnc3ccccc23)cc1 [Example 66, (4-Methoxy-phenyl)-methyl-(quinolin-4-yl)-amine]  12.5
3. COc1ccc(N(C)c2nc(CN(C)C)nc3ccccc23)cc1 [Example 77, (2-Dimethylaminomethyl-quinazolin-4-yl)-(4-methoxy-phenyl)-methyl-amine]  12.3
4. Cc1nc(N(C)c2ccc(N=[N+]=[N-])cc2)c2ccccc2n1 [Example 102, (4-Azido-phenyl)-(2-methyl-quinazolin-4-yl)-methyl-amine]  11.3
5. COc1ccc(N(C)c2nc(N(C)c3ccc(OC)cc3)c3c(Cl)cccc3n2)cc1 [Example 63, 5-Chloro-N^2,N^4-bis-(4-methoxy-phenyl)-N^2,N^4-dimethyl-quinazoline-2,4-diamine]  10.9
6. COc1ccc(N(C)c2nc(-c3ccccc3)nc3ccccc23)cc1 [Example 83, (4-Methoxy-phenyl)-(2-phenyl-quinazolin-4-yl)-methyl-amine]  10.8
7. COc1ccc(N(C)c2nc(Cl)nc3ccc(Cl)cc23)cc1 [Example 60, (2,6-Dichloro-quinazolin-4-yl)-(4-methoxy-phenyl)-methyl-amine]  6.5
8. COc1cccc(Nc2nc(Cl)nc3ccccc23)c1OC [Example 29, (2-Chloro-quinazolin-4-yl)-(2,3-dimethoxy-phenyl)-amine]  1.0
9. COc1ccc(N(C)c2nc(NCCN3CCOCC3)nc3cc(OC)c(OC)cc23)cc1 [Example 23, 6,7-Dimethoxy-N^4-(4-methoxy-phenyl)-N^4-methyl-N^2-(2-morpholin-4-yl-ethyl)-quinazoline-2,4-diamine]  1.0
10. COc1ccc(N(C)c2nc(NCCO)nc3cc(OC)c(OC)cc23)cc1 [Example 50, N^2-(2-Hydroxyethyl)-N^4-(4-methoxy-phenyl)-N^4-methyl-6,7-dimethoxyquinazoline-2,4-diamine]  1.0
